Values quoted from earlier work as cited in US20210352892A1, “MACROMOLECULAR AND NONPARTICULATE AGROCHEMICALS TO REDUCE VAPOR DRIFT” (University of Utah Research Foundation, priority 2019, published 2021).

Details: at 25 ° C.

vapor pressure: 4.5 mPa
SMILES: COc1c(Cl)ccc(Cl)c1C(=O)O [dicamba, 2-methoxy-3,6-dicholorobenzoic acid]
